This assay addresses Active Human ERK2 (hERK2) (Homo sapiens (Human), UniProt P28482). The assay is described as follows: Active Human ERK2 (hERK2) Activity Assay (IMAP-FP). It is filed as biochemical. Here is the method: Assays Active Human ERK2 (hERK2) Activity Assay:
Activated ERK2 activity was determined in an IMAP-FP assay (Molecular Devices). […] The final reaction in each well of 25 μL consists of 0.5 nM hERK2, 900 nM unlabeled peptide, 80 nM labeled-peptide, and 30 μM ATP. Phosphorylation reactions were allowed to proceed for 60 minutes and were immediately quenched by the addition of […] IMAP detection beads (1:1000 dilutions) in IMAP binding buffer (Molecular Devices) with 24 mM NaCl. Plates were read on EnVision reader after 60 minutes binding equilibration using Fluorescence Polarization protocol (Perkin Elmer).

The mark [1] stands for this setting: phosphorylated active hERK2, 30 μM ATP, average, read-out: ERK 2 Human average IC50.
[2] abbreviates: read-out: AERK2 IC50 (Active human ERK2 Activity Assay).

Like-named read-outs stand apart in the source and are kept apart here.

Sequence of Active Human ERK2 (hERK2) (P28482 whole entry): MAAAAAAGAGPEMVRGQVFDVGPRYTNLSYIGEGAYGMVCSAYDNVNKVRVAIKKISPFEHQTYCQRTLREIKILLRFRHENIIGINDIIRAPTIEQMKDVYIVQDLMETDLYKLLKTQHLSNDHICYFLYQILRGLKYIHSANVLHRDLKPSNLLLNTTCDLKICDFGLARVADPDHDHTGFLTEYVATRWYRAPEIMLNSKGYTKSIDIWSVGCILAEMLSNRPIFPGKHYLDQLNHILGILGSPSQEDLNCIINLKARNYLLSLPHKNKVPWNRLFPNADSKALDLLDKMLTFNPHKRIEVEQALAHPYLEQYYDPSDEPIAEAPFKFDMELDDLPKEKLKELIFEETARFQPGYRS

Consider `Cc1cc(-c2n[nH]c3cc(NC(=O)NCc4ccc(F)cc4F)ncc23)ccn1` [Example 513], for which the IC50 under setting [1] was determined as 1.56 nM. For `Cc1ccc(-c2n[nH]c3cc(NC(=O)N[C@H](C)c4ccc(F)cc4)ncc23)s1` [Example 248], the half-inhibitory concentration (IC50) under setting [1] was 11.7 nM. Turning to `Cc1cc(-c2n[nH]c3cc(NC(=O)Nc4noc5cnccc45)ncc23)ccn1` [Example 360], the IC50 under setting [1] is 0.378 nM. Take `Cc1cc(-c2n[nH]c3cc(NC(=O)NCc4c(F)cccc4F)ncc23)ccn1` [Example 52, 1-(2,6-difluorobenzyl)-3-[3-(2-methylpyridin-4-yl)-1H-pyrazolo[4,3-c]pyridin-6-yl]urea]: the IC50 is, setting by setting: under setting [1], 0.655 nM; under setting [2], 0.2 to 1.7 nM.

Turning to `Cc1cc(-c2n[nH]c3cc(NC(=O)N[C@H]4CN(C)C[C@@H]4C)ncc23)ccn1` [Example 205], the IC50 under setting [1] turned out to be 15.1 nM. `C[C@@H](NC(=O)Nc1cc2[nH]nc(-c3ccc(F)cc3)c2cn1)C1CCCCC1` [Example 594]: the IC50 under setting [1] came out at 3.78 nM. Consider `C[C@@H](NC(=O)Nc1cc2[nH]nc(-c3ccnc(F)c3)c2cn1)C1CCCCC1` [Example 593], for which the IC50 under setting [1] was 3.34 nM.

On to `Cc1cc(-c2n[nH]c3cc(NC(=O)NC(C4CC4)C(F)(F)F)ncc23)ccn1` (stereo not drawn) [Example 41, 1-(1-cyclopropyl-2,2,2-trifluoroethyl)-3-[3-(2-methylpyridin-4-yl)-1H-pyrazolo[4,3-c]pyridin-6-yl]urea], for which the IC50 under setting [1] was determined as 4.48 nM. The same measure, in the same setting: as for `COC[C@@H](NC(=O)Nc1cc2[nH]nc(C3CC3(F)F)c2cn1)c1ccccc1` (stereo partly drawn) [Example 163], the figure is 4.89 nM. Still for that read-out and setting: for `Cc1cc(-c2n[nH]c3cc(NC(=O)N[C@H]4CCN(CC(F)(F)F)C4)ncc23)ccn1` [Example 327] the value was 0.448 nM. For the compound `Cc1cc(-c2n[nH]c3cc(NC(=O)Nc4noc5ccccc45)ncc23)ccn1` [Example 337], under setting [1], the IC50 worked out at 1.4 nM. The same measure, in the same setting: for `Cc1cc(-c2n[nH]c3cc(NC(=O)NCc4cnoc4)ncc23)ccn1` [Example 437] the value was 1.95 nM; for `Cc1cc(-c2n[nH]c3cc(NC(=O)N[C@H]4CN(C)C[C@@H]4C4CC4)ncc23)ccn1` [Example 209], 8.27 nM.

Consider `CCO[C@H]1CN(C)C[C@@H]1NC(=O)Nc1cc2[nH]nc(-c3ccc(F)cc3)c2cn1` [Example 319], for which, under setting [1], the IC50 worked out at 0.521 nM.

As for `Cc1cc(-c2n[nH]c3cc(NC(=O)N[C@@H]4CN(C)C[C@H]4c4ccccc4)ncc23)ccn1` [Example 582], the IC50 under setting [1] is 0.234 nM. On the same count and under the same terms, as for `C[C@@H](NC(=O)Nc1cc2[nH]nc(C3CC3)c2cn1)c1ccc(F)cc1` [Example 141], the figure is 2.43 nM; as for `COCCNC(=O)Nc1cc2[nH]nc(-c3ccnc(OC(C)C)c3)c2cn1` [Example 604], 16.1 nM. Regarding `C[C@@H](NC(=O)Nc1cc2[nH]nc(C(=O)NCc3cccnn3)c2cn1)c1ccccc1` [Example 122], the IC50 under setting [1] was found to be 2.55 nM. With `COC[C@@H](NC(=O)Nc1cc2[nH]nc(-c3ccc4c(c3)nnn4C)c2cn1)c1ccc(F)cc1` [Example 301], the IC50 under setting [1] is 0.562 nM. The same measure, in the same setting: for `Cc1cc(-c2n[nH]c3cc(NC(=O)NCCOC(C)C)ncc23)ccn1` [Example 451] the value was 2.14 nM; for `COCCNC(=O)Nc1cc2[nH]nc(-c3ccc(F)cc3)c2cn1` [Example 623, 1-[3-(4-Fluorophenyl)-1H-pyrazolo[4,3-c]pyridin-6-yl]-3-(2-methoxyethyl)urea], 1.93 nM.

As for `Cc1cc(-c2n[nH]c3cc(NC(=O)N[C@H](C)c4ccccc4)ncc23)cc(C)n1` [Example 31, 1-[3-(2,6-dimethylpyridin-4-yl)-1H-pyrazolo[4,3-c]pyridin-6-yl]-3-[(1R)-1-phenylethyl]urea], the IC50 by setting is: under setting [1], 0.29 nM; under setting [2], 0.2 to 1.7 nM.

On to `COC[C@@H](NC(=O)Nc1ncc2c(-c3ccnc(C)c3)n[nH]c2c1F)c1ccccc1` [Example 542], for which the half-inhibitory concentration (IC50) under setting [1] was 0.269 nM. Still for that read-out and setting: for `Cc1cc(-c2n[nH]c3cc(NC(=O)NC4(c5ccccc5)CC4)ncc23)ccn1` [Example 350] the value was 10.6 nM; for `Cc1cc(-c2n[nH]c3cc(NC(=O)NCC4(C)CCCO4)ncc23)ccn1` (stereo not drawn) [Example 463], 1.58 nM. On the same count and under the same terms, for `O=C(NCC1CCOC1)Nc1cc2[nH]nc(-c3ccc(F)cc3)c2cn1` (stereo not drawn) [Example 220] the value was 2.46 nM; for `CC[C@@H](NC(=O)Nc1cc2[nH]nc(-c3ccnc(C)c3)c2cn1)c1ccc(Cl)cc1` [Example 414], 0.755 nM. Still for that read-out and setting: as for `C[C@@H](NC(=O)Nc1cc2[nH]nc(C3CC3(F)F)c2cn1)c1ccc(F)cc1` (stereo partly drawn) [Example 165], the figure is 8.83 nM; as for `Cc1cc(-c2n[nH]c3cc(NC(=O)NCc4cccc(-c5ncc[nH]5)c4)ncc23)ccn1` [Example 372], 1.33 nM; as for `C[C@@H](NC(=O)Nc1cc2[nH]nc(C3CC3)c2cn1)c1ccc(F)c(Cl)c1` [Example 82, 1-[(1R)-1-(3-chloro-4-fluorophenyl)ethyl]-3-(3-cyclopropyl-1H-pyrazolo[4,3-c]pyridin-6-yl)urea], 10.8 nM. In the case of `C[C@@H](NC(=O)Nc1cc2[nH]nc(C3CCCC3)c2cn1)c1ccccc1` [Example 653], under setting [1], the IC50 is 4.16 nM. Consider `Cc1cc(-c2n[nH]c3cc(NC(=O)NCc4cccc(-c5ccccc5)c4)ncc23)ccn1` [Example 333], for which the IC50 under setting [1] is 3.38 nM.

Regarding `C[C@@H](NC(=O)Nc1cc2[nH]nc(-c3cnn(C4COC4)c3)c2cn1)c1ccccc1` [Example 647], the IC50 under setting [1] turned out to be 0.464 nM.

For the compound `Cc1cc(-c2n[nH]c3cc(NC(=O)N[C@H](CO)c4cccc5cc[nH]c45)ncc23)ccn1` [Example 362], under setting [1], the IC50 is 0.288 nM.

With `Cc1cc(-c2n[nH]c3cc(NC(=O)Nc4noc5cccnc45)ncc23)ccn1` [Example 493], the IC50 under setting [1] worked out at 0.428 nM. As for `Cc1cc(-c2n[nH]c3cc(NC(=O)NC4CCCC(O)C4)ncc23)ccn1` (stereo not drawn) [Example 380], the IC50 under setting [1] turned out to be 6.18 nM. As to `C[C@@H](NC(=O)Nc1ncc2c(-c3ccnc(F)c3)n[nH]c2c1F)c1ccccc1` [Example 539], the IC50 under setting [1] turned out to be 0.728 nM. For `Cc1cc(-c2n[nH]c3cc(NC(=O)NC4CCOc5cc(F)ccc54)ncc23)ccn1` (stereo not drawn) [Example 286], under setting [1], the IC50 was 9.59 nM. Still for that read-out and setting: as for `Cc1cc(-c2n[nH]c3cc(NC(=O)N[C@@H]4[C@H](CO)[C@H]5CC[C@@H]4O5)ncc23)ccn1` [Example 367], the figure is 4.51 nM; as for `Cc1cc(-c2n[nH]c3cc(NC(=O)N[C@@H]4[C@@H](c5ccccc5)CN(C)[C@@H]4C)ncc23)ccn1` [Example 568], 0.479 nM; as for `C[C@@H](NC(=O)Nc1cc2[nH]nc(-c3ccc(C#N)cc3)c2cn1)c1cccc(Cl)c1` [Example 84, 1-[(1R)-1-(3-chlorophenyl)ethyl]-3-[3-(4-cyanophenyl)-1H-pyrazolo[4,3-c]pyridin-6-yl]urea], 6.11 nM.

Regarding `Cc1cc(-c2n[nH]c3cc(NC(=O)NCc4ncon4)ncc23)ccn1` [Example 426], under setting [1], the IC50 was 5.67 nM. Regarding `Cc1cc(-c2n[nH]c3cc(NC(=O)NCc4csc5ccccc45)ncc23)ccn1` [Example 502], the IC50 under setting [1] was determined as 1.31 nM. Still for that read-out and setting: as for `CCNC(=O)Nc1cc2[nH]nc(C3CC3)c2cn1` [Example 157], the figure is 253 nM. For the compound `O=C(NCc1ccc(F)c(Cl)c1)Nc1cc2[nH]nc(-c3ccnc(F)c3)c2cn1` [Example 58, 1-(3-chloro-4-fluorobenzyl)-3-[3-(2-fluoropyridin-4-yl)-1H-pyrazolo[4,3-c]pyridin-6-yl]urea], the IC50 under setting [1] is 1 nM and the IC50 under setting [2] lay within 0.2 to 1.7 nM. As to `Cc1cc(-c2n[nH]c3cc(NC(=O)NCc4nnc(C)s4)ncc23)ccn1` [Example 474], the IC50 under setting [1] amounted to 33.7 nM. The same measure, in the same setting: for `Cc1cc(-c2n[nH]c3cc(NC(=O)N[C@@H]4C[C@H]4c4ccccc4)ncc23)ccn1` [Example 583] the value was 0.917 nM; for `Cc1cc(-c2n[nH]c3cc(NC(=O)NCc4cnccc4C)ncc23)ccn1` [Example 491], 1.41 nM; for `CO[C@H]1CN(C(=O)c2n[nH]c3cc(NC(=O)N[C@H](C)c4ccccc4)ncc23)C[C@@H]1O` [Example 130], 1970 nM. Same read-out and setting: as for `Cc1cc(-c2n[nH]c3cc(NC(=O)NC4CCCOc5ccccc54)ncc23)no1` (stereo not drawn) [Example 690], the figure is 240 nM. Same read-out and setting: as for `Cc1cc(-c2n[nH]c3cc(NC(=O)NCc4cccc(NS(C)(=O)=O)c4)ncc23)ccn1` [Example 366], the figure is 0.34 nM; as for `Cc1cc(-c2n[nH]c3cc(NC(=O)NC[C@H]4COCCO4)ncc23)ccn1` [Example 549], 2.62 nM; as for `Cc1cc(-c2n[nH]c3cc(NC(=O)NCCc4ccccn4)ncc23)ccn1` [Example 47, 1-[3-(2-methylpyridin-4-yl)-1H-pyrazolo[4,3-c]pyridin-6-yl]-3-(2-pyridin-2-ylethyl)urea], 2.34 nM. Consider `Cc1cc(-c2n[nH]c3cc(NC(=O)NC4CCc5nc(N)sc5C4)ncc23)ccn1` (stereo not drawn) [Example 504], for which the IC50 under setting [1] is 1.36 nM.

As for `Cc1cc(-c2n[nH]c3cc(NC(=O)N[C@@H]4CN(C)C[C@H]4c4ccccc4)ncc23)ccn1` [Example 181], the half-inhibitory concentration (IC50) under setting [1] worked out at 0.217 nM.

For `COC(=O)C(NC(=O)Nc1cc2[nH]nc(-c3ccnc(C)c3)c2cn1)C(F)(F)F` (stereo not drawn) [Example 457], the IC50 under setting [1] turned out to be 31.1 nM. Still for that read-out and setting: as for `CN1CC[C@@H](NC(=O)Nc2cc3[nH]nc(-c4ccc(F)cc4)c3cn2)C1` [Example 316], the figure is 1.84 nM; as for `Cc1cc(-c2n[nH]c3cc(NC(=O)NCc4ncc(Cl)cc4F)ncc23)ccn1` [Example 487], 10.1 nM; as for `Cc1cc(-c2n[nH]c3cc(NC(=O)NCc4ccc(C(F)(F)F)cc4)ncc23)ccn1` [Example 54, 1-[3-(2-methylpyridin-4-yl)-1H-pyrazolo[4,3-c]pyridin-6-yl]-3-[4-(trifluoromethyl)-benzyl]urea], 6.52 nM.

Consider `Cc1cc(-c2n[nH]c3cc(NC(=O)NCc4ncc[nH]4)ncc23)ccn1` [Example 427], for which, under setting [1], the IC50 was 1.36 nM.

The values above are taken from patent US9023865B2, “Compounds that are ERK inhibitors” (Merck Sharp & Dohme Corp., priority 2011, dated 2015).
